Experimental findings from PMC12294558, “New 1,2,4-Triazole Derivatives with a N-Mannich Base Structure Based on a 4,6-Dimethylpyridine Scaffold as Anticancer Agents: Design, Synthesis, Biological Evaluation, and Molecular Modeling” (International Journal of Molecular Sciences, 2025) are described below.

Marks after values point to notes of the source that are not given here.

Common to all, as to type: cell-based, human
The subject of one series is LoVo cells. The experiment in a line: MTT viability assay, colorectal cancer cells LoVo. The settings on record: for SI, LoVo: CC50 CCD 841 CoTr / CC50 LoVo; for CC50: Homo sapiens, LoVo, MTT, 24 h, Non-toxic = no toxicity in tested range 1–500 μM, read-out: CC50 ± SD, LoVo. As for the experimental part: (§1) The cytotoxic effects of ten newly synthesized N-Mannich bases were assessed on the normal human intestinal epithelium (CCD 841 CoTr) and cancer cell lines: gastric cancer (EPG) and four colorectal cancer lines (Caco-2, LoVo, LoVo/Dx, and HT-29). Cell viability was evaluated using the MTT assay in accordance with Annex C of ISO 10993-5 [33].
(§2) The biological activity of the newly synthesized compounds was assessed in the context of anticancer activity. For this purpose, several gastrointestinal cancer lines were selected: gastric cancer (EPG 257, which belongs to the collection of the Laboratory of Cell Culture and Advanced Therapy at the University of Environmental and Life Sciences in Wrocław), and four colorectal cancer cell lines (LoVo, Caco-2, and HT-29) were obtained from the European Collection of Authenticated Cell Cultures (ECACC) and were delivered by Sigma-Aldrich, a certified distributor for the biobank. Additionally, LoVo cells were used to develop a doxorubicin-resistant subline, referred to as LoVo/Dx. Resistance was induced through gradual adaptation to increasing concentrations of doxorubicin, starting from 0.1 µg/mL and incrementally raised to 0.8 µg/mL. After reaching the maximum concentration, the cells were maintained in a medium containing 0.4 µg/mL doxorubicin for a period of three months to stabilize the resistant phenotype. […] The resulting LoVo/Dx subline, resistant to doxorubicin, was cultured in DMEM/F-12 medium and utilized in assays evaluating the effectiveness of novel compounds against multidrug-resistant cancer cells. […] The non-cancerous cell control was normal colonic epithelial cells (CCD 841 CoTr from American Type Culture Collection, (ATCC, Manassas, VA, USA)). Cell cultures were performed under standard conditions (5% CO2, 95% humidity, and 37 °C). Each cell line was cultured in the recommended medium: (1) HT-29 in McCoy’s 5a, (2) Caco-2 in Minimal Essential Medium (MEM, Biological Industries, Beit Haemek, Israel), (3) CCD 841 CoTr in Dulbecco’s Modified Eagle Medium (DMEM, Biological Industries, Beit Haemek, Israel), (4) LoVo in Dulbecco’s Modified Eagle Medium/F-12 (DMEM/F-12; Biological Industries, Beit Haemek, Israel), (5) LoVo/Dx in DMEM/F-12, and (6) EPG in DMEM. Culture media were supplemented with 10% fetal bovine serum (FBS, Sigma-Aldrich, Darmstadt, Germany) and antibiotics (penicillin and streptomycin; Sigma-Aldrich, Darmstadt, Germany). For assays, trypsinized (TrypLE solution, Thermo Fisher Scientific, Waltham, MA, USA) cells were seeded at appropriate densities of 10,000 cells per well for MTT and determination of apoptotic and necrotic cell numbers; 30,000 cells per well for the rhodamine accumulation assay; and 500,000 cells per well for ELISA tests.
(§3) The cytotoxicity of the compounds and drugs used as controls was assessed using the MTT assay. The assay also included a DMSO control. After seeding and allowing the cells to adhere overnight, they were treated with the tested compounds and drugs for another 24 h. After this time, the supernatant was removed, and a 1 mg/mL MTT solution was added for 2 h in 5% CO2, 95% humidity, at 37 °C. The supernatant was then removed, and isopropanol was added to dissolve the purple crystals over 30 min by shaking. Absorbance was measured at 570 nm in a Multiskan GO microplate reader (Thermo Fisher Scientific; Waltham, MA, USA). All reagents used for the assays were purchased from Sigma-Aldrich, Darmstadt, Germany.
(§4) Biological assays were performed in three independent replicates, each involving four samples. ELISA determinations were repeated three times.

The next series concerns EPG cells. The experiment in a line: MTT viability assay, gastric cancer cells. The following applies: for SI, EPG: CC50 CCD 841 CoTr / CC50 EPG; for CC50: Homo sapiens, MTT, 24 h, read-out: CC50 ± SD, EPG. On the procedure:
as §1, §2, §3, §4
(In general: Tetrazolium dyes change colour on reduction, which living cells bring about.)

A short description of series [1]: MTT viability assay, normal colonic epithelial cells. The following applies: human, CCD 841 CoTr normal colonic epithelial cells, Non-toxic = no toxicity in tested range 1–500 μM, read-out: CC50 ± SD, CCD 841 CoTr. On the procedure:
as §1, §2, §3, §4

For a further series, the system named is Caco-2 cells. The experiment in a line: MTT viability assay, colorectal cancer cells Caco-2. The settings on record: for SI, Caco-2: CC50 CCD 841 CoTr / CC50 Caco-2; for CC50: Homo sapiens, Caco-2, MTT, 24 h, read-out: CC50 ± SD, Caco-2. On the procedure: as §1, §2, §3, §4
Another series concerns LoVo/Dx cells. The experiment in a line: MTT viability assay, doxorubicin-resistant LoVo/Dx. The following applies: for SI, LoVo/Dx: CC50 CCD 841 CoTr / CC50 LoVo/Dx; for CC50: Homo sapiens, LoVo/DX, MTT, 24 h, read-out: CC50 ± SD, LoVo/Dx. As for the experimental part: as §1, §2, §3, §4
The test system of a further series is HT-29 cells. Nature of the series: MTT viability assay, colorectal cancer cells HT-29. The following applies: for SI, HT-29: CC50 CCD 841 CoTr / CC50 HT-29; for CC50: Homo sapiens, HT-29, MTT, 24 h, read-out: CC50 ± SD, HT-29. On the procedure: as §1, §2, §3, §4
The subject of a further series is CCD 841 CoTr cells. The experiment in a line: MTT viability assay, normal colonic epithelial cells. The following applies: 24 h, Non-toxic = no toxicity in tested range 1–500 μM. On the procedure:
as §1, §2, §3, §4

With `Cc1cc(C)c(C(=O)NCc2nn(CN3CCN(c4ccc([N+](=O)[O-])cc4)CC3)c(=S)n2C(C)C)c(S)n1` [Compound 13], in the series with LoVo cells, the “SI, LoVo” value is 2.26 and the CC50 came to 193 ± 3.7 µM. In the series on EPG cells, the “SI, EPG” value was found to be 3.63 and the CC50 was 120 ± 8.5 µM. For the same compound, the CC50 at 24 h in series [1] was 436.1 ± 2.7 µM. In the series with Caco-2 cells, the “SI, Caco-2” value worked out at 2.98 and the CC50 was 146 ± 3.6 µM. Moreover, in the series on LoVo/Dx cells, the “SI, LoVo/Dx” value was determined as 1.04 and the CC50 was found to be 419 ± 6.2 µM. In addition, in the series on HT-29 cells, the “SI, HT-29” value is given as 1.11 and the CC50 was 393 ± 7.4 µM.

`Cc1cc(C)c(C(=O)NCc2nn(CN3CCN(c4ccc([N+](=O)[O-])cc4)CC3)c(=S)n2C)c(S)n1` [Compound 10, 4,6-dimethyl-N-[(4-methyl-5-thioxo-2-{[4-(4-nitrophenyl)piperazinyl]methyl}-4,5-dihydro-1H-1,2,4-triazol-3-yl)methyl]-2-sulfanylpyridine-3-carboxamide]: in the series with LoVo cells, the “SI, LoVo” value is on record as >>1 ^c and the CC50 came to 148 ± 3.7 µM. In addition, in the series with EPG cells, the “SI, EPG” value is listed as >>1 ^c and the CC50 stood at 212 ± 3.7 µM. The “CC50 ± SD, CCD 841 CoTr” value with CCD 841 CoTr cells is given as “Non-toxic ^b”. In addition, in the series with Caco-2 cells, the “SI, Caco-2” value was >>1 ^c and the CC50 was 87.2 ± 5.2 µM. Further, in the series with LoVo/Dx cells, the “SI, LoVo/Dx” value is >>1 ^c and the CC50 worked out at 210 ± 3.3 µM. For the same compound, in the series with HT-29 cells, the “SI, HT-29” value is >>1 ^c and the CC50 is 176 ± 6.4 µM.

`Cc1ccc(N2CCN(Cn3nc(CNC(=O)c4c(C)cc(C)nc4S)n(C)c3=S)CC2)cc1` [Compound 11]: in the series with LoVo cells, the “SI, LoVo” value was 1.98 and the CC50 was found to be 137 ± 5.7 µM. Also, in the series with EPG cells, the “SI, EPG” value was determined as 2.28 and the CC50 was determined as 119 ± 3.4 µM. Further, in series [1], the CC50 at 24 h worked out at 271 ± 7.1 µM. Also, in the series on Caco-2 cells, the “SI, Caco-2” value is reported as 4.69 and the CC50 amounted to 57.7 ± 4.8 µM. In the series with LoVo/Dx cells, the “SI, LoVo/Dx” value is 1.06 and the CC50 is 255 ± 4.8 µM. Also, in the series with HT-29 cells, the “SI, HT-29” value is 1.12 and the CC50 was found to be 242 ± 4.1 µM.

On to `Cc1cc(C)c(C(=O)NCc2nn(CN3CCN(c4ccccc4)CC3)c(=S)n2-c2ccccc2)c(S)n1` [Compound 4], for which, in the series with LoVo cells, the “SI, LoVo” value turned out to be 1.18 and the CC50 is 201 ± 4.6 µM. For the same compound, in the series on EPG cells, the “SI, EPG” value was 1.68 and the CC50 is 141 ± 2.5 µM. The CC50 at 24 h in series [1] was found to be 236 ± 3.5 µM. In the series with Caco-2 cells, the “SI, Caco-2” value stood at 1.78 and the CC50 is 133 ± 2.7 µM. In addition, in the series with LoVo/Dx cells, the “SI, LoVo/Dx” value was found to be 1.17 and the CC50 was determined as 201 ± 4.1 µM. For the same compound, in the series on HT-29 cells, the “SI, HT-29” value was 1.26 and the CC50 came to 187.6 ± 1.6 µM.

Regarding `O=c1[nH]cc(F)c(=O)[nH]1` [Compound 5-FU, 5-fluorouracil, reference compound], in the series on LoVo cells, the “SI, LoVo” value came out at 0.85 and the CC50 stood at 72.2 ± 1.8 µM. Moreover, in the series on EPG cells, the “SI, EPG” value amounted to 0.55 and the CC50 came out at 111 ± 3.5 µM. In addition, in series [1], the CC50 at 24 h came out at 61.6 ± 3.7 µM. For the same compound, in the series with Caco-2 cells, the “SI, Caco-2” value was found to be 0.36 and the CC50 turned out to be 170 ± 3.7 µM. For the same compound, in the series with LoVo/Dx cells, the “SI, LoVo/Dx” value was 0.27 and the CC50 was 226 ± 2.7 µM. In addition, in the series on HT-29 cells, the “SI, HT-29” value is reported as 0.14 and the CC50 came to 428.5 ± 2.7 µM.

With `Cc1cc(C)c(C(=O)NCc2nn(CN3CCN(c4cccc(Cl)c4)CC3)c(=S)n2C(C)C)c(S)n1` [Compound 12, 4,6-dimethyl-N-[(4-(propan-2-yl)-5-thioxo-2-{[4-(3-chlorophenyl)piperazinyl]-methyl}-4,5-dihydro-1H-1,2,4-triazol-3-yl)methyl]-2-sulfanylpyridine-3-carboxamide], in the series with LoVo cells, the “SI, LoVo” value stood at 0.77 and the CC50 worked out at 445.9 ± 2.3 µM. In addition, in the series on EPG cells, the “SI, EPG” value is 1.30 and the CC50 turned out to be 263 ± 5.7 µM. In addition, the CC50 at 24 h in series [1] was found to be 342.5 ± 3.4 µM. Also, in the series on Caco-2 cells, the “SI, Caco-2” value amounted to 1.39 and the CC50 worked out at 247 ± 4.9 µM. In the series with LoVo/Dx cells, the “SI, LoVo/Dx” value amounted to 0.70 and the CC50 was 487 ± 5.9 µM. In the series with HT-29 cells, the “SI, HT-29” value was determined as 0.73 and the CC50 came out at 471.2 ± 3.7 µM.
